Assay results published in publication PMC7066107 (Investigational New Drugs, 2019).
Entries after “also recorded” stand apart in the source; their conditions may differ.

Assays:
[1] = system: Japanese patients with advanced solid tumours
Procedure: The study consisted of two stages (Fig. 1).
Recruitment of patients to each dose level was sequential using the standard 3 + 3 study design. […] At each dose level, treatment was continued until disease progression, DLT or other adverse event (AE) that would hinder the patient’s participation in the study, or until the patient requested discontinuation from the study.
Safety, pharmacokinetics, efficacy, exploratory pharmacodynamics and genetic outcomes were assessed in this study. The safety outcomes were the incidence, type, severity and time of onset of DLTs, AEs and treatment-related AEs (TRAEs). […] In addition, the maximum tolerated dose (MTD) was determined on the basis of DLTs.
(§1) Safety endpoints were analysed in the safety population, which consisted of patients who received ≥1 dose of the study drug. Efficacy endpoints were analysed in the full analysis set, which consisted of patients who received ≥1 dose of the study drug and underwent ≥1 post-baseline efficacy assessment. A summary of AEs, TRAEs and DLTs by mapped term, appropriate thesaurus level and severity was provided for each cohort. Summary statistics, including mean, standard deviation, coefficient of variation, median, and minimum and maximum, were calculated for pharmacokinetic and pharmacodynamic parameters.
Adverse events that could be considered dose-limiting toxicities
Grade 4 neutropenia persisting for ≥5 days or requiring treatment with G-CSF
Grade 4 thrombocytopenia or grade 3 thrombocytopenia requiring platelet transfusion
Grade ≥3 non-hematologic toxicity (excluding transient electrolyte abnormalities) Abnormal
toxicity will be assessed as DLTs only if they meet the following criteria. Grade ≥3 laboratory
ALP: A grade ≥3 increase persisting for ≥3 days will be assessed as a DLT.
Diarrhoea, nausea, vomiting, skin toxicity: A grade ≥3 event persisting for ≥1 week

[2] = system: patients with advanced or recurrent solid tumours; conditions: cited from earlier work
[3] = Plasma pharmacokinetics of navoximod in phase I study; conditions: for Dose proportionality of AUC and Cmax: 200-1000 mg
Procedure: The efficacy outcomes were the response rate, disease control rate, progression-free survival (PFS) and duration of response. Efficacy outcomes were assessed using the Response Evaluation Criteria in Solid Tumours (RECIST) version 1.1. Plasma concentrations of kynurenine and tryptophan and their ratios and the presence of UGT1A1*6 and UGT1A1*28 polymorphisms were the exploratory outcomes of this study.
as §1
Schedule for blood sampling for pharmacokinetic assessments
Visit pharmacokinetics kynurenine/tryptophan
(time window) pharmacodynamics (time
Cycle 0 Day 1 5 min before dosing (−30 min) 5 min before dosing (−30 min)
30 min after dosing (±5 min) 30 min after dosing (±5 min)
1 hr after dosing (±5 min) 1 hr after dosing (±5 min)
2 hr after dosing (±5 min) 2 hr after dosing (±5 min)
4 hr after dosing (±10 min) 4 hr after dosing (±10 min)
6 hr after dosing (±30 min) 6 hr after dosing (±30 min)
8 hr after dosing (±30 min) 8 hr after dosing (±30 min)
12 hr after dosing (±30 min) 12 hr after dosing (±30 min)
Cycle 0 Day 2 24 hr after dosing on Cycle 0 Day 1 24 hr after dosing on Cycle 0 Day 1
Cycle 0 Day 3 48 hr after dosing on Cycle 0 Day 1 –
(±2 hr), before dosing on Cycle 1
Cycle 1 Day 8 5 min before dosing (−30 min) –
Cycle 2 Day 1 5 min before dosing (−30 min) 5 min before dosing (−30 min)
12 hr after first dose (±60 min), 12 hr after first dose (±60 min),
before second dose before second dose
Cycle 4 Day 1 5 min before dosing (−30 min) –
Cycle 9 Day 1 5 min before dosing (−30 min) –
Last observation Any time –
12 hr after dosing (±60 min) 12 hr after dosing (±60 min)
(±2 hr), before dosing on Cycle 1, Day

IDO1 = conditions: following oral administration; cited from earlier work
advanced solid tumours = assay: Efficacy by RECIST version 1.1 (best overall response, disease control, PFS); conditions: Stage 1
Procedure: The efficacy outcomes were the response rate, disease control rate, progression-free survival (PFS) and duration of response. Efficacy outcomes were assessed using the Response Evaluation Criteria in Solid Tumours (RECIST) version 1.1.
Efficacy endpoints were analysed in the full analysis set, which consisted of patients who received ≥1 dose of the study drug and underwent ≥1 post-baseline efficacy assessment.

SMILES: O[C@H](C[C@H]1c2c(F)cccc2-c2cncn21)[C@H]1CC[C@H](O)CC1 [Navoximod]
- Maximum tolerated dose (MTD) ([1]; Stage 1, monotherapy up to 1000 mg BID): not reached
- Any TRAE, All grades ([1]; human, in vivo): 6 n
- Any TRAE, Grade ≥ 3 ([1]; human, in vivo): 2 n
- Chromaturia, All grades ([1]; human, in vivo): 5 n
- Chromaturia, Grade ≥ 3 ([1]; human, in vivo): 0 n
- Grade 4 or 5 TRAEs ([1]; human, in vivo): No grade 4 or 5 TRAEs were observed
- Incidence of chromaturia ([1]; human, in vivo): 55%
- Maculopapular rash, All grades ([1]; human, in vivo): 2 n
- Maculopapular rash, Grade ≥ 3 ([1]; human, in vivo): 1 n
- Patients with Grade ≥ 3 TRAEs ([1]; human, in vivo): 20%
- Patients with TRAE chromaturia, any grade ([1]; human, in vivo): 50%
- Patients with TRAE maculopapular rash, any grade ([1]; human, in vivo): 20%
- Patients with TRAEs ([1]; human, in vivo): 60%
- Symptomatic grade 3 or higher TRAE maculopapular rash ([1]; human, in vivo): 5%
- MTD ([2]; monotherapy 100-800 mg twice daily, 22 patients): not reached
- CRs or PRs ([2]; monotherapy): no CRs or PRs were observed
- Half-life ([2]; monotherapy): approximately 12 h
- Linearity of pharmacokinetics ([2]; monotherapy): linear pharmacokinetics
- Time to peak plasma concentration ([2]; monotherapy): approximately 60 min
- Decrease of plasma kynurenine levels ([2]; navoximod 400 mg, 600 mg or 800 mg, 2–4 h after administration): 25–30%
- Patients with Grade 3 or higher AEs ([2]; two patients of 22, lower gastrointestinal haemorrhage, diverticulitis): 9%
- Dose-corrected navoximod exposure by UGT1A1 genotype ([3]; patients with UGT1A1 −/*28): higher
- Dose-corrected navoximod exposure by UGT1A1 genotype ([3]; patients with UGT1A1 −/−, −/*6 and *6/*6): similar
- Dose proportionality of AUC and Cmax ([3]; single oral dose): dose-proportional
- Dose proportionality of AUC and Cmax ([3]; single oral dose, listed as navoximod): linear pharmacokinetics; also recorded: changed dose-proportionally
- Time at which mean plasma concentration peaked ([3]; single oral dose, Stage 1 or Stage 2): 15 to 60 min
- Reduction of plasma and tissue kynurenine concentrations (IDO1): approximately 50%
- Complete response (CR) and partial response (PR) (advanced solid tumours): not observed
- PFS, range (advanced solid tumours): 9 to 259 days
- Best overall response progressive disease (PD) (advanced solid tumours; all doses, n = 10): five
- Patients with stable disease (advanced solid tumours; all doses, n = 10): 50%
- Best overall response progressive disease (PD) (advanced solid tumours; navoximod 400 mg): 3 n
- Best overall response progressive disease (PD) (advanced solid tumours; navoximod 600 mg): 2 n
